{"source": "patent US9169231B2", "about": "“Anti-obesity agent comprising compound containing benzotropolone ring” (SUNTORY HOLDINGS LIMITED, priority 2009, dated 2015)", "type_in_all_cases": "biochemical", "key": {"[1]": {"molecular_target": "T1, porcine pancreatic lipase (Sus scrofa, UniProt P00591)", "T1 construct": "purchased Sigma-Aldrich Corp", "T1 sequence (P00591 1-450)": "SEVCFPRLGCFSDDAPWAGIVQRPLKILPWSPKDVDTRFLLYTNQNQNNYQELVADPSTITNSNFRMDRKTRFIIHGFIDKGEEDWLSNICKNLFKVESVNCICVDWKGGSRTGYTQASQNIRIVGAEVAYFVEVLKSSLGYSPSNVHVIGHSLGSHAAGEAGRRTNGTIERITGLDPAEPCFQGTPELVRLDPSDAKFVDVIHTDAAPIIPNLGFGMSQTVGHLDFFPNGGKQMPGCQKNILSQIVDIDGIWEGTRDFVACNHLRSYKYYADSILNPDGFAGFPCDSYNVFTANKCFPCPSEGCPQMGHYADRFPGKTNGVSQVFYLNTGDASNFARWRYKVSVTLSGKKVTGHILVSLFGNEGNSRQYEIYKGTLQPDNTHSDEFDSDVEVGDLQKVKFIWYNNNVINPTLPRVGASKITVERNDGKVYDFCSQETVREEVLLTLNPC", "assay": "Measurement of lipase inhibitory activity (Example 6; 4-MUO substrate, fluorescence)", "experimental": "The measurement of lipase activity was performed by using as a substrate the oleate ester of fluorescent 4-methylumbelliferone (4-MUO; Sigma-Aldrich Corp.) to measure the fluorescence of 4-methylumbelliferone produced by a reaction. […] The following were subjected to an enzymatic measurement: the substrate 4-MUO which was dissolved into a 0.1M DMSO solution followed by dilution of the solution 4000-fold with the above buffer; and as a lipase, porcine pancreatic lipase (Sigma-Aldrich Corp.) which was prepared as a 400 U/ml solution by using the above buffer likewise.\n(§1) An enzymatic reaction was initiated by the following steps under 25° C. condition: adding to a 96-well microplate 50 μl of a 4-MUO buffer solution and 25 μl of distilled water (or an aqueous sample solution) for each well; mixing them; and then adding 25 μl of a lipase buffer solution to each well. After a 30-minute reaction, 100 μl of a 0.1M citric acid buffer (pH4.2) was added to terminate the reaction, and the fluorescence of 4-methylumbelliferone (excitation wavelength: 355 nm, fluorescence wavelength: 460 nm) produced by the reaction was measured with a fluorescence plate reader (Fluoroskan Asent CF from Labsystems, Inc.)"}, "alfa-glucosidase": {"molecular_target": "alfa-glucosidase", "assay": "Measurement of alfa-glucosidase inhibitory activity (Example 11; p-nitrophenyl-alfa-D-glucopyranoside, A405)", "experimental": "A […] sodium phosphate buffer was prepared by mixing a 0.1M NaH2PO4-2H2O and a 0.1M Na2HPO4.12H2O and adjusting the mixture to pH7.0, and thereto 2 g/L of bovine serum albumin (Nacalai Tesque, Inc., F-V, pH5.2, 96% purity) and 0.2 g/L of NaN3 (Nacalai Tesque, Inc., a special grade reagent) were added. To prepare an enzyme solution, alfa-glucosidase (Wako Pure Chemical Industries, Ltd., yeast-derived, 100 units/mg) was dissolved in the above buffer so as to achieve 0.5 units/mg protein/ml (100 μg/20 ml). To prepare a substrate solution, p-nitrophenyl-alfa-D-glucopyranoside (Nacalai Tesque, Inc., a special grade reagent) was dissolved in the above buffer so as to achieve 5 mM concentration (7.525 mg/5 ml).\nAmong the samples used for the assays, epigallocatechin-3-O-gallate (Compound 13: EGCG), a positive control, was a product from Wako Pure Chemical Industries, Ltd., and Compounds 1, 3, 4, 5, 11, 12, 14, and 15 were products that were synthesized and purified in Example 1, 2, or 7.\nThese samples were adjusted so as to obtain 10 mg/ml of DMSO and the solution was diluted 2-fold in 6 steps. Using a 96-well microplate, 45 μL of the enzyme solution was added to 10 μL of the sample solution. After preincubation at 37° C. for 5 minutes, 45 μL of the substrate solution was added and absorbance at 405 nm (A405 nm) was measured. After incubation at 37° C. for 5 minutes, the absorbance A405 nm was measured. Percent inhibition was calculated as a difference in A405 nm from a solution in which only DMSO was added as a control instead of a sample, and two consecutive measurements were performed for activity of each compound."}, "[2]": {"molecular_target": "T2, porcine pancreatic lipase (Type VI-S) (Sus scrofa, UniProt P00591)", "T2 construct": "purchased Sigma-Aldrich Corp. Type VI-S", "T2 sequence (P00591 1-450)": "T1 sequence (P00591 1-450)", "assay": "Measurement of lipase activity (Example 10; 4-MUO substrate 7.5 μM, increased DMSO)", "settings": "Example 10 method; for IC50: substrate 7.5 μM, 25° C., 30-minute reaction, read-out: Lipase Inhibitory Activity per Mole IC50", "experimental": "The measurement of lipase activity was performed by using as a substrate the oleate ester of fluorescent 4-methylumbelliferone (4-MUO; Sigma-Aldrich Corp.) to measure the fluorescence of 4-methylumbelliferone produced by a reaction. In the measurement, 13 mM Tris-HCl (pH8.0) containing 150 mM NaCl and 1.36 mM CaCl2 was used as a buffer. The following were subjected to an enzymatic measurement: the substrate 4-MUO which was dissolved into a 0.01M DMSO solution followed by dilution of the solution 667-fold with the above buffer; and as a lipase, porcine pancreatic lipase (Sigma-Aldrich Corp.: Type VI-S) which was prepared as a 400 U/ml solution by using the above buffer likewise.\nas §1, with “μl of 4-MUO buffer” for “μl of a 4-MUO buffer”, “water (or aqueous sample” for “water (or an aqueous sample”, “each well. […] After a” for “each well. After a”, “μl of 0.1M citric” for “μl of a 0.1M citric”, “from Labsystems, Inc.).” for “from Labsystems, Inc.)”\nThe inhibitory activities of test samples were determined as IC50 (μM), a sample […] which produces 50% inhibition, relative to the activity of a control (distilled water)."}, "[3]": {"settings": "Example 6 method, substrate 12.5 μM, 25° C., 30-minute reaction, read-out: Lipase Inhibitory Activity per mole IC50"}}, "note": "Like-named read-outs stand apart in the source and are kept apart here.", "data": [{"compound": "O=C(O[C@@H]1Cc2c(O)cc(O)cc2O[C@@H]1c1cc(O)c(=O)c2c(O)c(O)cc([C@@H]3Oc4cc(O)cc(O)c4C[C@@H]3O)c2c1)c1cc(O)c(=O)c2c(O)c(O)cc([C@H]3Oc4cc(O)cc(O)c4C[C@H]3O)c2c1", "note": "(stereo in doubt) [Compound 6, theadibenzotropolone A]", "values": [{"measurement": "IC50", "setting": "[1]; [3]", "result": 0.178, "unit": "µM"}]}, {"compound": "O=C(O[C@@H]1Cc2c(O)cc(O)cc2O[C@@H]1c1cc(O)c(=O)c2c(O)c(O)cc([C@@H]3Oc4cc(O)cc(O)c4C[C@H]3OC(=O)c3cc(O)c(O)c(O)c3)c2c1)c1cc(O)c(=O)c2c(O)c(O)cc([C@H]3Oc4cc(O)cc(O)c4C[C@H]3OC(=O)c3cc(O)c(O)c(O)c3)c2c1", "note": "(stereo in doubt) [Compound 7, theaflavin digallate trimer 1 (TFdiGA-tri1)]", "values": [{"measurement": "IC50", "setting": "[1]; [3]", "result": 0.135, "unit": "µM"}]}, {"compound": "O=C(O[C@@H]1Cc2c(O)cc(O)cc2O[C@@H]1c1cc(O)c(=O)c2c(O)c(O)cc([C@@H]3Oc4cc(O)cc(O)c4C[C@H]3OC(=O)c3cc(O)c(=O)c4c(O)c(O)cc([C@H]5Oc6cc(O)cc(O)c6C[C@H]5OC(=O)c5cc(O)c(O)c(O)c5)c4c3)c2c1)c1cc(O)c(O)c(O)c1", "note": "(stereo in doubt) [Compound 8, theaflavin digallate trimer 2 (TFdiGA-tri2)]", "values": [{"measurement": "IC50", "setting": "[1]; [3]", "result": 0.138, "unit": "µM"}]}, {"compound": "O=c1c(O)cccc2cc(O)c(O)c(O)c12", "note": "[Compound 1, purprogallin]", "values": [{"measurement": "IC50", "setting": "[1]; [3]", "result": 0.413, "unit": "µM"}, {"measurement": "IC50", "setting": "alfa-glucosidase; 37° C., 5 minutes incubation", "result": 1240, "unit": "µM"}]}, {"compound": "O=C(O)c1cc(O)c(=O)c2c(O)c(O)c(O)cc2c1", "note": "[Compound 2, purprogallin carboxylic acid]", "values": [{"measurement": "IC50", "setting": "[1]", "result": 4.16, "unit": "µM"}]}, {"compound": "O=C(O[C@@H]1Cc2c(O)cc(O)cc2O[C@@H]1c1cc(=O)c(O)c2c(O)c(O)c(O)cc2c1)c1cc(O)c(O)c(O)c1", "note": "[Compound 4, epitheaflagallin-3-O-gallate, reference compound]", "values": [{"measurement": "IC50", "setting": "[2]", "result": 0.125, "unit": "µM"}, {"measurement": "IC50", "setting": "alfa-glucosidase; 37° C., 5 minutes incubation", "result": 180, "unit": "µM"}]}, {"compound": "O=C(O[C@@H]1Cc2c(O)cc(O)cc2O[C@@H]1c1ccc(O)c(O)c1)c1cc(O)c(=O)c2c(O)c(O)cc([C@H]3Oc4cc(O)cc(O)c4C[C@H]3OC(=O)c3cc(O)c(O)c(O)c3)c2c1", "note": "[Compound 5, theaflavate A]", "values": [{"measurement": "IC50", "setting": "[1]; [3]", "result": 0.202, "unit": "µM"}, {"measurement": "IC50", "setting": "alfa-glucosidase; 37° C., 5 minutes incubation", "result": 116, "unit": "µM"}]}, {"compound": "O=C(O)c1cc(O)c(=O)c2c(O)c(O)cc([C@H]3Oc4cc(O)cc(O)c4C[C@H]3O)c2c1", "note": "[Compound 9, epitheaflavic acid]", "values": [{"measurement": "IC50", "setting": "[1]; [3]", "result": 4.63, "unit": "µM"}]}, {"compound": "O=c1c(O)cccc2c([C@H]3Oc4cc(O)cc(O)c4C[C@H]3O)cc(O)c(O)c12", "note": "[Compound 10, theaflavanin]", "values": [{"measurement": "IC50", "setting": "[1]; [3]", "result": 0.984, "unit": "µM"}]}, {"compound": "O=C(O)c1cc(O)c(=O)c2c(O)c(O)cc([C@H]3Oc4cc(O)cc(O)c4C[C@H]3OC(=O)c3cc(O)c(O)c(O)c3)c2c1", "note": "[Compound 11, epitheaflavic acid-3-O-gallate]", "values": [{"measurement": "IC50", "setting": "[1]; [3]", "result": 0.266, "unit": "µM"}, {"measurement": "IC50", "setting": "alfa-glucosidase; 37° C., 5 minutes incubation", "result": 287, "unit": "µM"}]}, {"compound": "O=C(O[C@@H]1Cc2c(O)cc(O)cc2O[C@@H]1c1ccc(O)c(O)c1)c1cc(O)c(=O)c2c(O)c(O)c(O)cc2c1", "note": "[Compound 12, (2R,3R)-2-(3,4-dihydroxyphenyl)-5,7-dihydroxychroman-3-yl2,3,4,6-tetrahydroxy-5-oxo-5H-benzo[7]annulen-8-carboxylate]", "values": [{"measurement": "IC50", "setting": "[1]; [3]", "result": 0.207, "unit": "µM"}, {"measurement": "Lipase inhibitory activity (in words, compared with EGCG)", "setting": "[2]", "result": "stronger activity than a positive control, EGCG"}, {"measurement": "IC50", "setting": "[2]", "result": 0.096, "unit": "µM"}, {"measurement": "alfa-glucosidase inhibitory activity (in words)", "setting": "alfa-glucosidase", "result": "particularly strong activity"}, {"measurement": "IC50", "setting": "alfa-glucosidase; 37° C., 5 minutes incubation", "result": 159, "unit": "µM"}]}, {"compound": "O=C(O[C@@H]1Cc2c(O)cc(O)cc2O[C@@H]1c1cc(O)c(O)c2c(=O)c(O)cccc12)c1cc(O)c(O)c(O)c1", "note": "[Compound 14, theaflavanin 3-O-gallate]", "values": [{"measurement": "Lipase inhibitory activity (in words, compared with EGCG)", "setting": "[2]", "result": "stronger activity than a positive control, EGCG"}, {"measurement": "IC50", "setting": "[2]", "result": 0.168, "unit": "µM"}, {"measurement": "alfa-glucosidase inhibitory activity (in words)", "setting": "alfa-glucosidase", "result": "particularly strong activity"}, {"measurement": "IC50", "setting": "alfa-glucosidase; 37° C., 5 minutes incubation", "result": 196, "unit": "µM"}]}, {"compound": "O=C(O[C@@H]1Cc2c(O)cc(O)cc2O[C@@H]1c1cc(O)c(=O)c2c(O)c(O)ccc2c1)c1cc(O)c(O)c(O)c1", "note": "[Compound 15, EGCG-catechol]", "values": [{"measurement": "Lipase inhibitory activity (in words, compared with EGCG)", "setting": "[2]", "result": "stronger activity than a positive control, EGCG"}, {"measurement": "IC50", "setting": "[2]", "result": 0.104, "unit": "µM"}, {"measurement": "IC50", "setting": "alfa-glucosidase; 37° C., 5 minutes incubation", "result": 103, "unit": "µM"}]}, {"compound": "Oc1cccc(O)c1O", "note": "[pyrogallol, reference compound]", "values": [{"measurement": "IC50", "setting": "[1]; [3]", "result": 17.3, "unit": "µM"}]}, {"compound": "(−)-epigallocatechin-3-O-gallate [Compound 13, reference compound]", "values": [{"measurement": "IC50", "setting": "[1]; [3]", "result": 0.349, "unit": "µM"}, {"measurement": "IC50", "setting": "[2]", "result": 0.349, "unit": "µM"}, {"measurement": "IC50", "setting": "alfa-glucosidase; 37° C., 5 minutes incubation", "result": 485, "unit": "µM"}]}, {"compound": "epitheaflagallin [Compound 3, reference compound]", "values": [{"measurement": "IC50", "setting": "[2]", "result": 0.956, "unit": "µM"}, {"measurement": "alfa-glucosidase inhibitory activity IC50", "setting": "alfa-glucosidase; 37° C., 5 minutes incubation", "result": "No"}]}]}
